From patent publication US20240043404A1 (AbbVie Inc., priority 2009, published 2024)
Read-outs that look alike come from different tables or passages of the source.

Tested on: RS4;11 cells
Assay: RS4;11 cell viability assay (CellTiter Glo);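 further: acute lymphoblastic leukemia line RS4,11, EC50 derived from percentage of viable cells after treatment relative to untreated controls, cell killing taken as a measure of Bcl-2 inhibition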
Assay type: cell-based, human
Conditions: Homo sapiens, read-out: RS4
[1] = RS4-11, 48 h, 50,000 cells per well, 10% human serum, 48 hours, 11 EC50 Values
[2] = RS4-11, Table 5, direct comparison Z=N with corresponding analogs Z=C, 11 EC50

Procedure: The acute lymphoblastic leukemia (ALL) cell line RS4;11 was used as the primary human cell line to assess the cellular activity of Bcl-2 selective agents in vitro and their efficacy in vivo.
Cell cytotoxicity EC50 values were assessed using CellTiter Glo (Promega) according to the manufacturer's recommendations. The EC50 values were determined as a percentage of viable cells following treatment compared to the untreated control cells.

SMILES	EC50 [1] [nM]	EC50 [2] [nM]	EC50 (RS4-11, Table 4, selected compounds in U.S. Pat. Application No. 12/631404, 11 EC50) [nM]
CN1CCC(Nc2ccc(S(=O)(=O)NC(=O)c3ccc(N4CCN(CC5=C(c6ccc(Cl)cc6)CC(C)(C)CC5)CC4)cc3Oc3ccc4[nH]ccc4c3)cc2[N+](=O)[O-])CC1 [Example 90, 4-(4-{[2-(4-chlorophenyl)-4,4-dimethylcyclohex-1-en-1-yl]methyl}piperazin-1-yl)-2-(1H-indol-5-yloxy)-N-({4-[(1-methylpiperidin-4-yl)amino]-3-nitrophenyl}sulfonyl)benzamide]	63	63	–
CC1(C)CCC(CN2CCN(c3ccc(C(=O)NS(=O)(=O)c4ccc(OCC5COCCO5)c([N+](=O)[O-])c4)c(Oc4ccc5[nH]ccc5c4)c3)CC2)=C(c2ccc(Cl)cc2)C1 (stereo not shown) [Example 92, 4-(4-{[2-(4-chlorophenyl)-4,4-dimethylcyclohex-1-en-1-yl]methyl}piperazin-1-yl)-N-{[4-(1,4-dioxan-2-ylmethoxy)-3-nitrophenyl]sulfonyl}-2-(1H-indol-5-yloxy)benzamide]	80.9	–	81
COCCNc1ccc(S(=O)(=O)NC(=O)c2ccc(N3CCN(CC4=C(c5ccc(Cl)cc5)CC(C)(C)CC4)CC3)cc2Oc2ccc3[nH]ccc3c2)cc1S(=O)(=O)C(F)(F)F [Example 93, 4-(4-{[2-(4-chlorophenyl)-4,4-dimethylcyclohex-1-en-1-yl]methyl}piperazin-1-yl)-2-(1H-indol-5-yloxy)-N-({4-[(2-methoxyethyl)amino]-3-[(trifluoromethyl)sulfonyl]phenyl}sulfonyl)benzamide]	> 5000	> 5000	–
CC1(C)CCC(CN2CCN(c3ccc(C(=O)NS(=O)(=O)c4ccc(NCC5CCOCC5)c(S(=O)(=O)C(F)(F)F)c4)c(Oc4ccc5[nH]ccc5c4)c3)CC2)=C(c2ccc(Cl)cc2)C1 [Example 94, 4-(4-{[2-(4-chlorophenyl)-4,4-dimethylcyclohex-1-en-1-yl]methyl}piperazin-1-yl)-2-(1H-indol-5-yloxy)-N-({4-[(tetrahydro-2H-pyran-4-ylmethyl)amino]-3-[(trifluoromethyl)sulfonyl]phenyl}sulfonyl)benzamide]	1690	1690	–
CC1(C)CCC(CN2CCN(c3ccc(C(=O)NS(=O)(=O)c4cnc(OCC5(F)CCOCC5)c(Cl)c4)c(Oc4cnc5[nH]ccc5c4)c3)CC2)=C(c2ccc(Cl)cc2)C1 [Example 96, N-({5-chloro-6-[(4-fluorotetrahydro-2H-pyran-4-yl)methoxy]pyridin-3-yl}sulfonyl)-4-(4-{[2-(4-chlorophenyl)-4,4-dimethylcyclohex-1-en-1-yl]methyl}piperazin-1-yl)-2-(1H-pyrrolo[2,3-b]pyridin-5-yloxy)benzamide]	43.6	–	–
CCN1CCOCC1COc1ncc(S(=O)(=O)NC(=O)c2ccc(N3CCN(CC4=C(c5ccc(Cl)cc5)CC(C)(C)CC4)CC3)cc2Oc2cnc3[nH]ccc3c2)cc1Br (stereo not shown) [Example 102, N-({5-bromo-6-[(4-ethylmorpholin-3-yl)methoxy]pyridin-3-yl}sulfonyl)-4-(4-{[2-(4-chlorophenyl)-4,4-dimethylcyclohex-1-en-1-yl]methyl}piperazin-1-yl)-2-(1H-pyrrolo[2,3-b]pyridin-5-yloxy)benzamide]	622	–	–
CCN1CCOCC1COc1ccc(S(=O)(=O)NC(=O)c2ccc(N3CCN(CC4=C(c5ccc(Cl)cc5)CC(C)(C)CC4)CC3)cc2Oc2cnc3[nH]ccc3c2)cc1[N+](=O)[O-] (stereo not shown) [Example 103, 4-(4-{[2-(4-chlorophenyl)-4,4-dimethylcyclohex-1-en-1-yl]methyl}piperazin-1-yl)-N-({4-[(4-ethylmorpholin-3-yl)methoxy]-3-nitrophenyl}sulfonyl)-2-(1H-pyrrolo[2,3-b]pyridin-5-yloxy)benzamide]	39.2	–	–
CC1(C)CCC(CN2CCN(c3ccc(C(=O)NS(=O)(=O)c4cnc(NCC5CCOCC5)c(C#N)c4)c(Oc4cnc5[nH]ccc5c4)c3)CC2)=C(c2ccc(Cl)cc2)C1 [Example 106, 4-(4-{[2-(4-chlorophenyl)-4,4-dimethylcyclohex-1-en-1-yl]methyl}piperazin-1-yl)-N-({5-cyano-6-[(tetrahydro-2H-pyran-4-ylmethyl)amino]pyridin-3-yl}sulfonyl)-2-(1H-pyrrolo[2,3-b]pyridin-5-yloxy)benzamide]	826	–	–

Second part, led by results:

EC50 [1] [nM]	SMILES	EC50 [2] [nM]	EC50 (RS4-11, Table 4, selected compounds in U.S. Pat. Application No. 12/631404, 11 EC50) [nM]
29.5	CC1(C)CCC(CN2CCN(c3ccc(C(=O)NS(=O)(=O)c4ccc(NC5CCN(C(CF)CF)CC5)c([N+](=O)[O-])c4)c(Oc4cnc5[nH]ccc5c4)c3)CC2)=C(c2ccc(Cl)cc2)C1 [Example 95, 4-(4-{[2-(4-chlorophenyl)-4,4-dimethylcyclohex-1-en-1-yl]methyl}piperazin-1-yl)-N-{[4-({1-[2-fluoro-1-(fluoromethyl)ethyl]piperidin-4-yl}amino)-3-nitrophenyl]sulfonyl}-2-(1H-pyrrolo[2,3-b]pyridin-5-yloxy)benzamide]	–	–
55.6	CC1(C)CCC(CN2CCN(c3ccc(C(=O)NS(=O)(=O)c4ccc(NC5CCN(CC(F)F)CC5)c([N+](=O)[O-])c4)c(Oc4cnc5[nH]ccc5c4)c3)CC2)=C(c2ccc(Cl)cc2)C1 [Example 97, 4-(4-{[2-(4-chlorophenyl)-4,4-dimethylcyclohex-1-en-1-yl]methyl}piperazin-1-yl)-N-[(4-{[1-(2,2-difluoroethyl)piperidin-4-yl]amino}-3-nitrophenyl)sulfonyl]-2-(1H-pyrrolo[2,3-b]pyridin-5-yloxy)benzamide]	–	–
22.9	CC1(C)CCC(CN2CCN(c3ccc(C(=O)NS(=O)(=O)c4ccc(NC5CCN(C6CC6)CC5)c([N+](=O)[O-])c4)c(Oc4cnc5[nH]ccc5c4)c3)CC2)=C(c2ccc(Cl)cc2)C1 [Example 98, 4-(4-{[2-(4-chlorophenyl)-4,4-dimethylcyclohex-1-en-1-yl]methyl}piperazin-1-yl)-N-({4-[(1-cyclopropylpiperidin-4-yl)amino]-3-nitrophenyl}sulfonyl)-2-(1H-pyrrolo[2,3-b]pyridin-5-yloxy)benzamide]	–	–
1390	CC1(C)CCC(CN2CCN(c3ccc(C(=O)NS(=O)(=O)c4ccc(NCC5(N6CCOCC6)CCCCC5)c([N+](=O)[O-])c4)c(Oc4cnc5[nH]ccc5c4)c3)CC2)=C(c2ccc(Cl)cc2)C1 [Example 99, 4-(4-{[2-(4-chlorophenyl)-4,4-dimethylcyclohex-1-en-1-yl]methyl}piperazin-1-yl)-N-[(4-{[(1-morpholin-4-ylcyclohexyl)methyl]amino}-3-nitrophenyl)sulfonyl]-2-(1H-pyrrolo[2,3-b]pyridin-5-yloxy)benzamide]	–	–
137	CC1(C)CCC(CN2CCN(c3ccc(C(=O)NS(=O)(=O)c4ccc(N[C@H]5CC[C@H](N(C6CC6)C6CC6)CC5)c([N+](=O)[O-])c4)c(Oc4cnc5[nH]ccc5c4)c3)CC2)=C(c2ccc(Cl)cc2)C1 [Example 100, Trans-4-(4-{[2-(4-chlorophenyl)-4,4-dimethylcyclohex-1-en-1-yl]methyl}piperazin-1-yl)-N-[(4-{[4-(dicyclopropylamino)cyclohexyl]amino}-3-nitrophenyl)sulfonyl]-2-(1H-pyrrolo[2,3-b]pyridin-5-yloxy)benzamide]	–	–
299	CC1(C)CCCC(c2ccc(Cl)cc2)=C1CN1CCN(c2ccc(C(=O)NS(=O)(=O)c3ccc(NCC4CCOCC4)c([N+](=O)[O-])c3)c(Oc3cnc4[nH]ccc4c3)c2)CC1 [Example 101, 4-(4-{[2-(4-chlorophenyl)-6,6-dimethylcyclohex-1-en-1-yl]methyl}piperazin-1-yl)-N-({3-nitro-4-[(tetrahydro-2H-pyran-4-ylmethyl)amino]phenyl}sulfonyl)-2-(1H-pyrrolo[2,3-b]pyridin-5-yloxy)benzamide]	–	–
71.2	CC1(C)CCC(CN2CCN(c3ccc(C(=O)NS(=O)(=O)c4ccc(OCC5COCCN5C5CCOCC5)c([N+](=O)[O-])c4)c(Oc4cnc5[nH]ccc5c4)c3)CC2)=C(c2ccc(Cl)cc2)C1 (stereo not shown) [Example 104, 4-(4-{[2-(4-chlorophenyl)-4,4-dimethylcyclohex-1-en-1-yl]methyl}piperazin-1-yl)-N-({3-nitro-4-[(4-tetrahydro-2H-pyran-4-ylmorpholin-3-yl)methoxy]phenyl}sulfonyl)-2-(1H-pyrrolo[2,3-b]pyridin-5-yloxy)benzamide]	–	–
53.6	CC1(C)CCC(CN2CCN(c3ccc(C(=O)NS(=O)(=O)c4ccc(N[C@H]5CCCN(C6CCOCC6)C5)c([N+](=O)[O-])c4)c(Oc4cnc5[nH]ccc5c4)c3)CC2)=C(c2ccc(Cl)cc2)C1 [Example 105, 4-(4-{[2-(4-chlorophenyl)-4,4-dimethylcyclohex-1-en-1-yl]methyl}piperazin-1-yl)-N-[(3-nitro-4-{[(3S)-1-tetrahydro-2H-pyran-4-ylpiperidin-3-yl]amino}phenyl)sulfonyl]-2-(1H-pyrrolo[2,3-b]pyridin-5-yloxy)benzamide]	–	–
24.1	CC1(C)CCC(CN2CCN(c3ccc(C(=O)NS(=O)(=O)c4ccc(NCC5(N)CCOCC5)c([N+](=O)[O-])c4)c(Oc4cnc5[nH]ccc5c4)c3)CC2)=C(c2ccc(Cl)cc2)C1 [Example 108, N-[(4-{[(4-aminotetrahydro-2H-pyran-4-yl)methyl]amino}-3-nitrophenyl)sulfonyl]-4-(4-{[2-(4-chlorophenyl)-4,4-dimethylcyclohex-1-en-1-yl]methyl}piperazin-1-yl)-2-(1H-pyrrolo[2,3-b]pyridin-5-yloxy)benzamide]	–	–
183	CC1(C)CCC(CN2CCN(c3ccc(C(=O)NS(=O)(=O)c4cnc(N[C@H]5CC[C@H](N6CCOCC6)CC5)c(C#N)c4)c(Oc4cnc5[nH]ccc5c4)c3)CC2)=C(c2ccc(Cl)cc2)C1 [Example 109, Trans-4-(4-{[2-(4-chlorophenyl)-4,4-dimethylcyclohex-1-en-1-yl]methyl}piperazin-1-yl)-N-({5-cyano-6-[(4-morpholin-4-ylcyclohexyl)amino]pyridin-3-yl}sulfonyl)-2-(1H-pyrrolo[2,3-b]pyridin-5-yloxy)benzamide]	–	–
